Publication PMC9487482, “Activity of Tricyclic Pyrrolopyrimidine Gyrase B Inhibitor against Mycobacterium abscessus” (Antimicrobial Agents and Chemotherapy, 2022)

Target: T1, DNA gyrase subunit B (GyrB) (Mycobacteroides abscessus, UniProt B1ME45)
T1 construct: recombinant M. abscessus ATCC 19977 DNA gyrase (A2B2 heterotetramer); with DNA gyrase subunit A (GyrA)
Test: DNA supercoiling inhibition assay (relaxed pBR322, agarose gel)
Type: biochemical

T1 sequence (B1ME45 entry or part of it): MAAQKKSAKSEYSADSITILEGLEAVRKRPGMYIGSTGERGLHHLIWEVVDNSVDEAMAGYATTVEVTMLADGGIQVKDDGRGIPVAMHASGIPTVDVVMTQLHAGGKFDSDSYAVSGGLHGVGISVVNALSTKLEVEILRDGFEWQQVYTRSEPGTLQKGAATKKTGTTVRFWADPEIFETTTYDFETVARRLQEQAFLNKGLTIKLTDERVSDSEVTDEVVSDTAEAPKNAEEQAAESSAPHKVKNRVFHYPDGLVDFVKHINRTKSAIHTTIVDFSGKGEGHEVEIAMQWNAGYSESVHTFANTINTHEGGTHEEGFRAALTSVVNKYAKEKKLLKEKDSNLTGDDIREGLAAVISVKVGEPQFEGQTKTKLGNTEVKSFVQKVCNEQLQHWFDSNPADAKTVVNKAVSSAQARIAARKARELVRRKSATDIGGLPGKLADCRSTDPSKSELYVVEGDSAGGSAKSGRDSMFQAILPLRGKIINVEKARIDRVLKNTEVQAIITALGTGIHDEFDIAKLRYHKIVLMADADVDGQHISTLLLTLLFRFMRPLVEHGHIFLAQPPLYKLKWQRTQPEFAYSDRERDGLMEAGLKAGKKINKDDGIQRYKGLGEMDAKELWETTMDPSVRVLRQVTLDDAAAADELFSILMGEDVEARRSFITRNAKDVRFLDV
T1 sequence (B1ME58 entry or part of it, further chain): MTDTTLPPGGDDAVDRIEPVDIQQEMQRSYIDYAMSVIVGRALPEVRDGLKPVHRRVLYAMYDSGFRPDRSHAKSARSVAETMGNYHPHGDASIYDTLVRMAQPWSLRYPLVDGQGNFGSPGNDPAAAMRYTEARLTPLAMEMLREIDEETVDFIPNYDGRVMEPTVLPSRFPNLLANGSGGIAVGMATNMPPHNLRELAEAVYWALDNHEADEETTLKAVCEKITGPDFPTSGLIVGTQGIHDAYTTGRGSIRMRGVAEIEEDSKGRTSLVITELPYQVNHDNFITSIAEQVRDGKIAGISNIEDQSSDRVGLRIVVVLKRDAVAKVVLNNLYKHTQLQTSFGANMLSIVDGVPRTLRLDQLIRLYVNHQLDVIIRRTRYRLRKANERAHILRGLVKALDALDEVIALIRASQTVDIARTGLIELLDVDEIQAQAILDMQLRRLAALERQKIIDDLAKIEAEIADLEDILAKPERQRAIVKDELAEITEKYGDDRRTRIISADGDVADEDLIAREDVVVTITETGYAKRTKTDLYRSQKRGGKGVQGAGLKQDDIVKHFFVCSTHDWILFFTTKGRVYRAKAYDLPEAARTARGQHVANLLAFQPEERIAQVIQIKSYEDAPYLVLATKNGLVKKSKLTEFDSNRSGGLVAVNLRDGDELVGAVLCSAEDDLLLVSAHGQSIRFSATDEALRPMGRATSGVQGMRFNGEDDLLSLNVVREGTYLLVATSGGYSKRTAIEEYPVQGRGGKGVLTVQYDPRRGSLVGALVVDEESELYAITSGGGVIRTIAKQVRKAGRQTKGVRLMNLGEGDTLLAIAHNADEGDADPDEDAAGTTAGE

CCNC(=O)Nc1nc2cc(-c3cnc(C(C)(C)O)nc3)c(F)c([C@H]3CCCO3)c2[nH]1 [SPR719]
IC50: 1000 nM
